The values that follow come from paper PMC7070818 (Clinical and Translational Science, 2019).

For orientation: AUC(0-t) means exposure summed from dosing to a finite time, without extrapolation to infinity. The term AUC(0-inf) denotes the area under the concentration-time curve extrapolated to infinity. Read a low AUC(0-inf) as low exposure.

Like-named read-outs stand apart in the source and are kept apart here.

Data set [1] is classed as in vivo, human. The conditions noted are these: for AUC(0-t): AUC0–23 hours; for AUC(0-inf): AUC0–∞; for Tmax: median (range).
The conditions of data set [2]: fasted state; cited from earlier work.
For data set [3] the following is noted: cited from earlier work.
Data set [4] relates to Bruton's tyrosine kinase (BTK). Particulars: cited from earlier work.
Where [5] appears, read: male, human, plasma, oral, 140 mg, placebo phase, 140‐mg ibrutinib dose, geometric mean (geometric CV).
[6] abbreviates: male, human, plasma, oral, itraconazole phase, dose‐adjusted to a 140‐mg dose, geometric mean (geometric CV).
Setting [7] is: male, human, plasma, oral, itraconazole phase, unadjusted, 15‐mg ibrutinib dose, geometric mean (geometric CV).
[8] abbreviates: itraconazole phase (15 mg, unadjusted) vs placebo phase (140 mg).
Where [9] appears, read: itraconazole phase (dose‐adjusted to 140 mg) vs placebo phase.
[10] abbreviates: itraconazole phase vs placebo phase.
The mark [11] stands for this setting: itraconazole phase, dose‐adjusted to a 140‐mg dose, geometric mean (geometric CV).
The mark [12] stands for this setting: itraconazole phase, unadjusted, 15‐mg ibrutinib dose, geometric mean (geometric CV).
[13] abbreviates: placebo phase, 140‐mg ibrutinib dose, geometric mean (geometric CV).
[14] abbreviates: unadjusted, 15 mg ibrutinib during itraconazole, 140 mg during placebo.

As to `C=CC(=O)N1CCC[C@@H](n2nc(-c3ccc(Oc4ccccc4)cc3)c3c(N)ncnc32)C1` [Ibrutinib, ibrutinib, reference compound], the Cmax in data set [1] (male, human, plasma, oral) is 192 ng/mL; in data set [1] (male, human, plasma, po), 20.6 ng/mL; in data set [1] (male, human, plasma, po, 140 mg), 22 ng/mL. The figures for the AUC(0-t) in data set [1] (setting [5]), in data set [1] (setting [6]) and in data set [1] (setting [7]) were 74.4 ng·h/mL, 755 ng·h/mL and 80.9 ng·h/mL, respectively. Further, the AUC(0-inf) amounted to 76.5 ng·h/mL in data set [1] (setting [5]), 764 ng·h/mL in data set [1] (setting [6]) and 81.9 ng·h/mL in data set [1] (setting [7]). Moreover, the Mean oral bioavailability entry in data set [2] is recorded as “about 3%”. Besides, the “Enhancement of bioavailability by food” value in data set [3] was “about twofold”. Besides, the “Increase of AUC by ketoconazole” value in data set [3] (fasted state, healthy volunteers) is recorded as 24 fold. The “Increase of AUC by grapefruit juice” value in data set [3] (fed conditions, healthy adults) is on record as 2.2 fold.

`Nc1ncnc2c1c(-c1ccc(Oc3ccccc3)cc1)nn2[C@@H]1CCCN(C(=O)C(O)CO)C1` (stereo partly shown) [PCI‐45227]: the “AUC0–23 hours geometric mean ratio (90% CI)” value in data set [1] (setting [8]) is listed as 0.10 (0.08, 0.11); in data set [1] (setting [9]) it was 0.91 (0.78, 1.07). The “AUC0–∞ geometric mean ratio (90% CI)” value in data set [1] (setting [8]) is given as 0.10 (0.09, 0.12); in data set [1] (setting [9]), 0.97 (0.82, 1.16). The “Cmax geometric mean ratio (90% CI)” value was 0.07 (0.06, 0.09) in data set [1] (setting [8]) and 0.68 (0.59, 0.79) in data set [1] (setting [9]). In addition, the “t1/2 geometric mean ratio (90% CI)” value in data set [1] (itraconazole phase (dose‐adjusted) column vs placebo phase) was 1.3 (1.10, 1.46); in data set [1] (setting [10]), 1.3 (1.10, 1.46). Moreover, the t1/2 in data set [1] (itraconazole phase (dose‐adjusted) column, geometric mean (geometric CV)) is 8.1 (0.28) hour; in data set [1] (itraconazole phase, 15‐mg ibrutinib dose, geometric mean (geometric CV)), 8.1 (0.28) hour; in data set [1] (setting [13]) it was 6.4 (0.27) hour. For the same compound, in data set [1] (setting [10]), the “PCI‐45227/Ibrutinib AUC0‐∞ ratio, geometric mean ratio (90% CI)” value is on record as 0.10 (0.08, 0.12). Further, the “AUC0–23 hours” value is recorded as 214.3 (0.36) ng·hour/mL in data set [1] (setting [11]), 23.0 (0.36) ng·hour/mL in data set [1] (setting [12]) and 235.2 (0.43) ng·hour/mL in data set [1] (setting [13]). Further, the “AUC0–∞” value in data set [1] (setting [11]) is on record as 256.0 (0.42) ng·hour/mL; in data set [1] (setting [12]) it was 27.4 (0.42) ng·hour/mL; in data set [1] (setting [13]), 262.8 (0.45) ng·hour/mL. Moreover, in data set [1] (setting [11]), the Cmax is on record as 21.2 (0.28) ng/mL. The Tmax is listed as 3 (1.5–4) hour in data set [1] (itraconazole phase, 15‐mg ibrutinib dose) and 3 (1.5–4) hour in data set [1] (placebo phase, 140‐mg ibrutinib dose). Further, the “PCI‐45227/Ibrutinib AUC0‐∞ ratio” value in data set [1] (itraconazole phase, geometric mean (geometric CV)) was 0.34 (0.28); in data set [1] (placebo phase, geometric mean (geometric CV)), 3.4 (0.57). For the same compound, the “PCI‐45227/Ibrutinib AUC0–∞ ratio during itraconazole, relative to control” value in data set [1] (itraconazole vs placebo) was 10 % of control. Moreover, the “AUC0‐∞ during itraconazole phase relative to placebo phase” value in data set [1] (setting [14]) was determined as 10%. The “Cmax during itraconazole phase relative to placebo phase” value in data set [1] (setting [14]) is on record as 7%. Moreover, the “Inhibitory activity toward BTK relative to parent ibrutinib” value in data set [4] is “about 15 times lower”.
